Reference: patent US7842808B2, “Anti-migraine spirocycles” (Bristol-Myers Squibb Company, priority 2002, dated 2010)

Target: T1, CGRP receptor (SK-N-MC cell membranes) (Homo sapiens, UniProt O60894+Q16602)
T1 construct: endogenous in cells; host or cells: SK-N-MC cells (membrane homogenate)
Assay: CGRP Binding Assay ([125I]-CGRP radioligand binding, SK-N-MC homogenate)
Conditions: displacement of [125I]-CGRP, SK-N-MC homogenate; read-out: CGRP binding IC50

T1 sequence (Q16602 23-461): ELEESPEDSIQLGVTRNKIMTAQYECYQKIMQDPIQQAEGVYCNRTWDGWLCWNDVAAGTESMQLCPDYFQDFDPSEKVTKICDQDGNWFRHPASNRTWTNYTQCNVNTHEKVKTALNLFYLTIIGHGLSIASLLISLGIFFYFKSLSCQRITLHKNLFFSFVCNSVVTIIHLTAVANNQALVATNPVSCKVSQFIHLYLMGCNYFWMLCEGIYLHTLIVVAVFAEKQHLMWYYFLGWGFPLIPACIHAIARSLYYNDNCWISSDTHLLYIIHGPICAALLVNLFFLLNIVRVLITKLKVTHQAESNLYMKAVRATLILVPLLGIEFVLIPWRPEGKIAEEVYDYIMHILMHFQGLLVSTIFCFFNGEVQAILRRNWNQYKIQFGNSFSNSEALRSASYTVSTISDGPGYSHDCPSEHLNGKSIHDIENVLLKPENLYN
T1 sequence (O60894 27-148): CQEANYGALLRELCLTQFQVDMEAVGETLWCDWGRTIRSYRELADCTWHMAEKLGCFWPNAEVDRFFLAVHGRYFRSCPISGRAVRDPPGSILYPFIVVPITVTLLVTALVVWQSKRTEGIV

Structure (SMILES) | IC50 [nM]
O=C(N[C@@H](CC(=O)N1CCC(N2Cc3ccccc3NC2=O)CC1)C(=O)N1CCC(N2CCCCC2)CC1)c1cccc(OC(F)(F)F)c1 [Example 121] | 100 to 1000
O=C(N[C@@H](CC(=O)N1CCC(N2Cc3ccccc3NC2=O)CC1)C(=O)N1CCC(N2CCCCC2)CC1)c1cc(F)cc(F)c1 [Example 122] | 100 to 1000
O=C(N[C@@H](CC(=O)N1CCC(N2Cc3ccccc3NC2=O)CC1)C(=O)N1CCC(N2CCCCC2)CC1)c1cccc(Cl)c1Cl [Example 123] | 10 to 100
O=C(N[C@@H](CC(=O)N1CCC(N2Cc3ccccc3NC2=O)CC1)C(=O)N1CCC(N2CCCCC2)CC1)c1ccc([N+](=O)[O-])o1 [Example 124] | 100 to 1000
O=C(N[C@@H](CC(=O)N1CCC(N2Cc3ccccc3NC2=O)CC1)C(=O)N1CCC(N2CCCCC2)CC1)c1sc2ccccc2c1Cl [Example 125] | 100 to 1000
O=C(N[C@@H](CC(=O)N1CCC(N2Cc3ccccc3NC2=O)CC1)C(=O)N1CCC(N2CCCCC2)CC1)c1cc2ccccc2s1 [Example 126] | 100 to 1000
O=C(Cc1ccc(Cl)cc1)N[C@@H](CC(=O)N1CCC(N2Cc3ccccc3NC2=O)CC1)C(=O)N1CCC(N2CCCCC2)CC1 [Example 127] | 100 to 1000
COc1cc(C(=O)N[C@@H](CC(=O)N2CCC(N3Cc4ccccc4NC3=O)CC2)C(=O)N2CCC(N3CCCCC3)CC2)cc(OC)c1OC [Example 128] | 100 to 1000
O=C(N[C@@H](CC(=O)N1CCC(N2Cc3ccccc3NC2=O)CC1)C(=O)N1CCC(N2CCCCC2)CC1)c1cccc(Cl)c1 [Example 129] | 100 to 1000
O=C(N[C@@H](CC(=O)N1CCC(N2Cc3ccccc3NC2=O)CC1)C(=O)N1CCC(N2CCCCC2)CC1)Oc1ccccc1 [Example 130] | 100 to 1000
O=C(N[C@@H](CC(=O)N1CCC(N2Cc3ccccc3NC2=O)CC1)C(=O)N1CCC(N2CCCCC2)CC1)Oc1ccc(F)cc1 [Example 131] | 100 to 1000
Cc1ccc(OC(=O)N[C@@H](CC(=O)N2CCC(N3Cc4ccccc4NC3=O)CC2)C(=O)N2CCC(N3CCCCC3)CC2)cc1 [Example 132] | 100 to 1000
O=C(N[C@@H](CC(=O)N1CCC(N2Cc3ccccc3NC2=O)CC1)C(=O)N1CCC(N2CCCCC2)CC1)Oc1ccc(Br)cc1 [Example 133] | 100 to 1000
COc1ccc(OC(=O)N[C@@H](CC(=O)N2CCC(N3Cc4ccccc4NC3=O)CC2)C(=O)N2CCC(N3CCCCC3)CC2)cc1 [Example 134] | 100 to 1000
O=C(Nc1ccc2ccccc2c1)N[C@@H](CC(=O)N1CCC(N2Cc3ccccc3NC2=O)CC1)C(=O)N1CCC(N2CCCCC2)CC1 [Example 135] | 100 to 1000
O=C(Nc1ccccc1Oc1ccccc1)N[C@@H](CC(=O)N1CCC(N2Cc3ccccc3NC2=O)CC1)C(=O)N1CCC(N2CCCCC2)CC1 [Example 136] | 100 to 1000
O=C(Nc1cccc2ccccc12)N[C@@H](CC(=O)N1CCC(N2Cc3ccccc3NC2=O)CC1)C(=O)N1CCC(N2CCCCC2)CC1 [Example 137] | 100 to 1000
O=C(NCCc1ccccc1)N[C@@H](CC(=O)N1CCC(N2Cc3ccccc3NC2=O)CC1)C(=O)N1CCC(N2CCCCC2)CC1 [Example 138] | 100 to 1000
Cc1cc(C)c(NC(=O)N[C@@H](CC(=O)N2CCC(N3Cc4ccccc4NC3=O)CC2)C(=O)N2CCC(N3CCCCC3)CC2)cc1C [Example 139] | 100 to 1000
O=C(Nc1ccc(Cl)cc1)N[C@@H](CC(=O)N1CCC(N2Cc3ccccc3NC2=O)CC1)C(=O)N1CCC(N2CCCCC2)CC1 [Example 140] | 10 to 100
Cc1ccccc1NC(=O)N[C@@H](CC(=O)N1CCC(N2Cc3ccccc3NC2=O)CC1)C(=O)N1CCC(N2CCCCC2)CC1 [Example 141] | 100 to 1000
CCc1cccc(NC(=O)N[C@@H](CC(=O)N2CCC(N3Cc4ccccc4NC3=O)CC2)C(=O)N2CCC(N3CCCCC3)CC2)c1 [Example 142] | 100 to 1000
O=C(Nc1ccccc1)N[C@@H](CC(=O)N1CCC(N2Cc3ccccc3NC2=O)CC1)C(=O)N1CCC(N2CCCCC2)CC1 [Example 143] | 100 to 1000
